# Counter-ions that a name gives are not always drawn.
row,melting point,SMILES
1,> 300 °C,Cc1nc2ccc(N3CCC4(CC3)CNCCO4)nn2c1-c1ccnc(N)c1 (as salt: HCl)
2,214 to 221 °C,"Cc1cc(-c2c(C)nc3ccc(N4CC5CNCC5C4)nn23)ccn1 (stereo not shown) (as salt: HCl) [Compound 67, 6-Hexahydropyrrolo[3,4-c]pyrrol-2(1H)-yl-2-methyl-3-(2-methylpyridin-4-yl)-imidazo[1,2-b]-pyridazine]"
3,139 to 141 °C,"Cc1nc2ccc(N3CCNCC3)nn2c1-c1ccnc(F)c1 [Compound 3, 3-(2-Fluoropyridin-4-yl)-2-methyl-6-piperazin-1-ylimidazo[1,2-b]pyridazine]"
4,146 to 148 °C,"Cc1nc2ccc(N3CCN[C@H](C)C3)nn2c1-c1ccncc1 [Compound 26, 2-Methyl-6-((R)-3-methylpiperazin-1-yl)-3-pyridin-4-ylimidazo[1,2-b]pyridazine]"
5,157 to 159 °C,"Cc1cc(-c2c(C)nc3ccc(N4CCN[C@H](C)C4)nn23)ccn1 [Compound 27, 2-Methyl-6-((R)-3-methylpiperazin-1-yl)-3-(2-methylpyridin-4-yl)imidazo[1,2-b]pyridazine]"
6,172 to 177 °C,"Cc1nc2ccc(N3CCN[C@H](C)C3)nn2c1-c1ccnc(N)c1 [Compound 28, 4-[2-Methyl-6-((R)-3-methylpiperazin-1-yl)imidazo[1,2-b]pyridazin-3-yl]pyridin-2-ylamine]"
7,146 to 148 °C,"Cc1nc2ccc(N3CCN[C@@H](C)C3)nn2c1-c1ccncc1 [Compound 35, 2-Methyl-6-((S)-3-methylpiperazin-1-yl)-3-pyridin-4-ylimidazo[1,2-b]pyridazine]"
8,106 to 108 °C,"COc1cc(-c2c(C)nc3ccc(N4CCN[C@@H](C)C4)nn23)ccn1 [Compound 36, 3-(2-Methoxypyridin-4-yl)-2-methyl-6-((S)-3-methylpiperazin-1-yl)imidazo[1,2-b]pyridazine]"
9,172 to 177 °C,"Cc1nc2ccc(N3CCN[C@@H](C)C3)nn2c1-c1ccnc(N)c1 [Compound 38, 4-[2-Methyl-6-((S)-3-methylpiperazin-1-yl)imidazo[1,2-b]pyridazin-3-yl]pyridin-2-ylamine]"
10,237 to 240 °C,"Cc1nc2ccc(N3CCNC(CO)C3)nn2c1-c1ccncc1 (stereo not shown) [Compound 41, [4-(2-Methyl-3-pyridin-4-ylimidazo[1,2-b]pyridazin-6-yl)piperazin-2-yl]methanol]"
11,132 to 144 °C,"Cc1nc2ccc(N3CCN(C4CCC4)CC3)nn2c1-c1ccnc(N)c1 [Compound 48, 4-[6-(4-Cyclobutylpiperazin-1-yl)-2-methylimidazo[1,2-b]pyridazin-3-yl]pyridin-2-ylamine]"
12,151 to 156 °C,"Cc1nc2ccc(N3CCNC(C)(C)C3)nn2c1-c1ccnc(CN)c1 [Compound 50, {4-[6-(3,3-Dimethylpiperazin-1-yl)-2-methylimidazo[1,2-b]pyridazin-3-yl]pyridin-2-yl}methylamine]"
13,127 to 129 °C,"Cc1cc(-c2c(C)nc3ccc(N4C[C@@H](C)N[C@@H](C)C4)nn23)ccn1 [Compound 55, 6-(cis-3,5-Dimethylpiperazin-1-yl)-2-methyl-3-(2-methylpyridin-4-yl)imidazo[1,2-b]pyridazine]"
14,213 to 215 °C,"Cc1nc2ccc(N3C[C@@H](C)N[C@@H](C)C3)nn2c1-c1ccnc(N)c1 [Compound 56, 4-[6-(cis-3,5-Dimethylpiperazin-1-yl)-2-methylimidazo[1,2-b]pyridazin-3-yl]pyridin-2-ylamine]"
15,111 to 126 °C,"CNc1cc(-c2c(C)nc3ccc(N4C[C@@H](C)N[C@@H](C)C4)nn23)ccn1 [Compound 57, {4-[6-(cis-3,5-Dimethylpiperazin-1-yl)-2-methylimidazo[1,2-b]pyridazin-3-yl]pyridin-2-yl}-methylamine]"
16,131 to 133 °C,"Cc1cc(-c2c(C)nc3ccc(N4C[C@H]5CCN[C@@H]5C4)nn23)ccn1 [Compound 65, (R,S)-6-(Hexahydropyrrolo[3,4-b]pyrrol-5(1H)-yl)-2-methyl-3-(2-methylpyridin-4-yl)imidazo[1,2-b]pyridazine]"
17,> 155 °C (dec.),"Cc1nc2ccc(N3CC4CNCC4C3)nn2c1-c1ccnc(N)c1 (stereo not shown) [Compound 68, {4-[6-(Hexahydropyrrolo[3,4-c]pyrrol-2(1H)-yl)-2-methylimidazo[1,2-b]pyridazin-3-yl]pyridin-2-yl}amine]"
18,215 to 218 °C,"Cc1nc2ccc(N3CC4CN(C(C)C)CC4C3)nn2c1-c1ccnc(N)c1 (stereo not shown) [Compound 73, 4-[6-(−5-Isopropylhexahydropyrrolo[3,4-c]pyrrol-2(1H)-yl)-2-methylimidazo[1,2-b]pyridazin-3-yl]pyridin-2-ylamine]"
19,129 to 138 °C,"Cc1nc2ccc(N3CCC(N4CCCC4)CC3)nn2c1-c1ccnc(N)c1 [Compound 84, 4-[2-Methyl-6-(4-pyrrolidin-1-ylpiperidin-1-yl)imidazo[1,2-b]pyridazin-3-yl]pyridin-2-ylamine]"

# Second part, the molecule before the results:
row,SMILES,melting point
1,Cc1nc2ccc(N3C[C@@H]4C[C@H]3CN4)nn2c1-c1ccncc1,120 °C (dec.)
2,Cc1cc(-c2c(C)nc3ccc(N4C[C@@H]5C[C@@H]4CN5)nn23)ccn1 (as salt: HBr),> 300 °C
3,Cc1cc(-c2c(C)nc3ccc(N4CCC5(CCCNC5)CC4)nn23)ccn1 (as salt: HCl),> 295 °C
4,Cc1nc2ccc(N3CCC4(CC3)CNCCO4)nn2c1-c1ccncc1 (as salt: HCl),> 255 °C
5,"Cc1nc2ccc(N3CCNCC3)nn2c1-c1ccncc1 (as salt: HCl) [Compound 2, 2-Methyl-6-piperazin-1-yl-3-pyridin-4-yl-imidazo[1,2-b]pyridazine]",319 to 321 °C
6,"CCN1CCN(c2ccc3nc(C)c(-c4ccncc4)n3n2)CC1 (as salt: HCl) [Compound 42, 6-(4-Ethylpiperazin-1-yl)-2-methyl-3-pyridin-4-ylimidazo[1,2-b]pyridazine]",305 to 307 °C
7,"Cc1nc2ccc(N3C[C@@H](C)N[C@@H](C)C3)nn2c1-c1ccncc1 (as salt: HCl) [Compound 54, 6-(cis-3,5-Dimethylpiperazin-1-yl)-2-methyl-3-pyridin-4-ylimidazo[1,2-b]pyridazine]",343 to 345 °C
8,"CC(C)c1nc2ccc(N3CCNCC3)nn2c1-c1ccncc1 [Compound 9, 2-Isopropyl-6-piperazin-1-yl-3-pyridin-4-ylimidazo[1,2-b]pyridazine]",199 to 201 °C
9,"c1cc(-c2c(C3CC3)nc3ccc(N4CCNCC4)nn23)ccn1 [Compound 11, 2-Cyclopropyl-6-piperazin-1-yl-3-pyridin-4-ylimidazo[1,2-b]pyridazine]",169 to 171 °C
10,"CC(C)Cc1nc2ccc(N3CCNCC3)nn2c1-c1ccncc1 [Compound 16, 2-Isobutyl-6-piperazin-1-yl-3-pyridin-4-ylimidazo[1,2-b]pyridazine]",92 to 119 °C
11,"Cc1nc2ccc(N3CCN(C)CC3)nn2c1-c1ccncc1 [Compound 39, 2-Methyl-6-(4-methylpiperazin-1-yl)-3-pyridin-4-ylimidazo[1,2-b]pyridazine]",150 to 152 °C
12,"CN1CCN(c2ccc3nc(C(F)(F)F)c(-c4ccncc4)n3n2)CC1 [Compound 40, 6-(4-Methylpiperazin-1-yl)-3-pyridin-4-yl-2-trifluoromethylimidazo[1,2-b]pyridazine]",182 to 184 °C
13,"CCN1CCN(c2ccc3nc(C)c(-c4ccnc(C)c4)n3n2)CC1 [Compound 43, 6-(4-Ethylpiperazin-1-yl)-2-methyl-3-(2-methylpyridin-4-yl)imidazo[1,2-b]pyridazine]",144 to 146 °C
14,"Cc1cc(-c2c(C)nc3ccc(N4CCN(C(C)C)CC4)nn23)ccn1 [Compound 45, 6-(4-Isopropylpiperazin-1-yl)-2-methyl-3-(2-methylpyridin-4-yl)imidazo[1,2-b]pyridazine]",97 to 99 °C
15,"Cc1nc2ccc(N3CCN(C4CCC4)CC3)nn2c1-c1ccncc1 [Compound 47, 6-(4-Cyclobutylpiperazin-1-yl)-2-methyl-3-pyridin-4-ylimidazo[1,2-b]pyridazine]",122 to 132 °C
16,"Cc1nc2ccc(N3CC4CN(C(C)C)CC4C3)nn2c1-c1ccncc1 (stereo not shown) [Compound 72, 6-(−5-Isopropylhexahydropyrrolo[3,4-c]pyrrol-2(1H)-yl)-2-methyl-3-pyridin-4-ylimidazo[1,2-b]-pyridazine]",172 to 175 °C
17,"COc1cc(-c2c(C)nc3ccc(N4CC5CNCC5C4)nn23)ccn1 (stereo not shown) [Compound 74, 6-Hexahydropyrrolo[3,4-c]pyrrol-2(1H)-yl-3-(2-methoxypyridin-4-yl)-2-methylimidazo[1,2-b]-pyridazine]",95 °C
18,"Cc1nc2ccc(N3C[C@H]4CCCN[C@@H]4C3)nn2c1-c1ccncc1 [Compound 75, (R,S)-2-Methyl-6-(octahydropyrrolo[3,4-b]pyridin-6-yl)-3-pyridin-4-ylimidazo[1,2-b]-pyridazine]",130 to 135 °C
19,"Cc1cc(-c2c(C)nc3ccc(N4CCC5(CC4)CNC5)nn23)ccn1 [Compound 76, 6-(2,7-Diazaspiro[3.5]non-7-yl)-2-methyl-3-(2-methylpyridin-4-yl)imidazo[1,2-b]pyridazine]",117 to 120 °C
20,"Cc1nc2ccc(N3CCC(N4CCCC4)CC3)nn2c1-c1ccncc1 [Compound 82, 2-Methyl-3-pyridin-4-yl-6-(4-pyrrolidin-1-ylpiperidin-1-yl)imidazo[1,2-b]pyridazine]",150 to 153 °C
21,"Cc1cc(-c2c(C)nc3ccc(N4CCC(N5CCCC5)CC4)nn23)ccn1 [Compound 83, 2-Methyl-3-(2-methylpyridin-4-yl)-6-(4-pyrrolidin-1-ylpiperidin-1-yl)imidazo[1,2-b]pyridazine]",124 to 126 °C

# — patent US20110312934A1, “2-ALKYL-6-CYCLOAMINO-3-(PYRIDIN-4-YL)IMIDAZO[1,2-B]-PYRIDAZINE DERIVATIVES, PREPARATION THEREOF, AND THERAPEUTIC APPLICATION THEREOF” (SANOFI-AVENTIS, priority 2008, published 2011)
